Results: patent US8741911B2, “Raf inhibitor compounds” (Eli Lilly and Company, priority 2012, dated 2014)
Like-named read-outs stand apart in the source and are kept apart here.

Tests used:
[1] = molecular target: B-Raf (V600E) (Homo sapiens, UniProt P15056, V600E); assay: ActivX KiNativ A375 whole cell lysate assay; assay type: binding
[2] = tested on: HT-29 cells; assay: CellTiter-Blue HT-29 cell proliferation assay; assay type: cell-based; conditions: Homo sapiens; HT-29, CellTiter-Blue; read-out: Cell Proliferation Inhibition IC50
Method: HT-29 cells (catalog #HTB-38) are obtained from the American Type Culture Collection (ATCC, Manassas, Va.). Briefly, cells are grown in McCoy's 5A supplemented with 10% characterized fetal bovine serum (Invitrogen, Carlsbad, Calif.), and 1% Penicillin/Streptomycin/L-Glutamine at 37 degrees Celsius, 5% CO2, and 95% humidity. Cells are allowed to expand until reaching 75-90% confluency at which point they are subcultured or harvested for assay use. A serial dilution of test compound is dispensed into a 384-well black clear bottom plate in triplicate. One thousand two-hundred fifty cells are added per well in 50 μL complete growth medium in the 384-well plate. Plates are incubated for 67 hours at 37 degrees Celsius, 5% CO2, and 95% humidity. At the end of the incubation period, 10 μL of a 440 μM solution of resazurin (Sigma, St. Louis, Mo.) in PBS is added to each well of the plate and plates are incubated for an additional 5 hours at 37 degrees Celsius, 5% CO2, and 95% humidity. Plates are read on a Synergy2 reader (Biotek, Winooski, Vt.) using an excitation of 540 nm and an emission of 600 nm. Data is analyzed using Prism software (Graphpad, San Diego, Calif.) to calculate IC50 values.
The A375, HT-29, and Colo-205 cells (ATCC) harbor a V600E mutation.

[3] = tested on: GA-10-Clone-4; assay: CellTiter-Glo proliferation and viability assay; assay type: cell-based; conditions: Homo sapiens
[4] = tested on: DMS-53; assay: CellTiter-Glo proliferation and viability assay; assay type: cell-based; conditions: Homo sapiens, read-out: Abs IC50
[5] = tested on: NCI-H2030; assay: CellTiter-Glo proliferation and viability assay; assay type: cell-based; conditions: Homo sapiens
[6] = tested on: MV-4-11; assay: CellTiter-Glo proliferation and viability assay; assay type: cell-based; conditions: Homo sapiens
[7] = tested on: MIA-PaCa-2; assay: CellTiter-Glo proliferation and viability assay; assay type: cell-based; conditions: Homo sapiens, read-out: Abs IC50
[8] = tested on: CCRF-CEM; assay: CellTiter-Glo proliferation and viability assay; assay type: cell-based; conditions: Homo sapiens, read-out: Abs IC50
[9] = tested on: huH-1; assay: CellTiter-Glo proliferation and viability assay; assay type: cell-based; conditions: Homo sapiens
[10] = tested on: SW620; assay: CellTiter-Glo proliferation and viability assay; assay type: cell-based; conditions: Homo sapiens
[11] = tested on: Caki-1; assay: CellTiter-Glo proliferation and viability assay; assay type: cell-based; conditions: Homo sapiens
[12] = tested on: DU-145; assay: CellTiter-Glo proliferation and viability assay; assay type: cell-based; conditions: Homo sapiens
[13] = tested on: NCI-H1436; assay: CellTiter-Glo proliferation and viability assay; assay type: cell-based; conditions: Homo sapiens
[14] = tested on: NCI-H1694; assay: CellTiter-Glo proliferation and viability assay; assay type: cell-based; conditions: Homo sapiens
[15] = tested on: NCI-H1793; assay: CellTiter-Glo proliferation and viability assay; assay type: cell-based; conditions: Homo sapiens
[16] = tested on: PC-3; assay: CellTiter-Glo proliferation and viability assay; assay type: cell-based; conditions: Homo sapiens
[17] = tested on: hematologic cancer cell lines with N-Ras mutations B-Raf wild type; assay: CellTiter-Glo proliferation and viability assay, N-Ras mutant hematologic panel; assay type: cell-based; conditions: Homo sapiens; 7 of the 9 hematologic cancer cell lines with N-Ras mutations B-Raf wild type
Method: Additional N-RAS mutant B-Raf wild type hematologic cancer cell lines were tested for sensitivity to Example 1. N-Ras activating mutations are common in hematologic cancers occurring at a frequency of 10-30%. Two B-Raf V600E mutant melanoma cell lines (A-375 and SK-Mel-28), nine N-Ras mutant hematologic cell lines (HL-60, THP-1, TALL-1, C8166, H9, IM-9, GA-10 clone 4, P31-FUJ, MOLT-4) and seven N-Ras wild-type cell lines (LOUCY, HEL, U266, EB2, P30-OHK, NOMO-1, CCRF-CEM) were tested, and the IC50 data reported.

[18] = tested on: A375 V600E xenograft; assay: A375 xenograft tumor model, efficacy; assay type: in vivo, rat; conditions: nude rats, oral twice a day 5, 10, 15, and 20 mg/kg for 21 days
Method: (§1) Briefly, 10×10^6 cells (A375) or 5×10^6 cells (HCT-116) in a 1:1 medium and matrigel mix (0.2 mL total volume) are implanted by subcutaneous injection in the hind leg of nude female rats (NIH model No. NIHRNU-M from Taconic). A total of 8 rats in each group are used for the efficacy study, and a total of 3-4 rats in each group are used for a pharmacodynamic study. The Eli Lilly and Company Animal Care and Use Committee approved all the experimental protocols. […] Tumor growth and body weight are monitored over time to evaluate activity and signs of toxicity. Bidimensional measurements of tumors are performed twice a week and tumor volumes are calculated based on mid-axis length and mid-axis width. Tumor volume data are transformed to a log scale to equalize variance across time and treatment groups. The log volume data are analyzed with a two-way repeated measures analysis of variance by time and treatment using the MIXED® procedures in SAS® software (version 8.2). The correlation model for the repeated measures is spatial power. Treated groups are compared to the control group at each time point. The MIXED® procedure is also used separately for each treatment group to calculate adjusted means and standard errors at each time point. […]

[19] = tested on: HCT-116 K-Ras mutant B-Raf wild type xenograft; assay: HCT-116 xenograft tumor model, efficacy; assay type: in vivo, rat; conditions: nude rats, oral twice a day 30 mg/kg for 21 days
Method: as §1

[20] = Bioavailability; conditions: in vivo
[21] = Solubility; assay type: physicochemical
[22] = molecular target: C-Raf (WT) (Homo sapiens, UniProt P04049); assay: biochemical
Sequence of C-Raf (WT) (P04049 whole entry): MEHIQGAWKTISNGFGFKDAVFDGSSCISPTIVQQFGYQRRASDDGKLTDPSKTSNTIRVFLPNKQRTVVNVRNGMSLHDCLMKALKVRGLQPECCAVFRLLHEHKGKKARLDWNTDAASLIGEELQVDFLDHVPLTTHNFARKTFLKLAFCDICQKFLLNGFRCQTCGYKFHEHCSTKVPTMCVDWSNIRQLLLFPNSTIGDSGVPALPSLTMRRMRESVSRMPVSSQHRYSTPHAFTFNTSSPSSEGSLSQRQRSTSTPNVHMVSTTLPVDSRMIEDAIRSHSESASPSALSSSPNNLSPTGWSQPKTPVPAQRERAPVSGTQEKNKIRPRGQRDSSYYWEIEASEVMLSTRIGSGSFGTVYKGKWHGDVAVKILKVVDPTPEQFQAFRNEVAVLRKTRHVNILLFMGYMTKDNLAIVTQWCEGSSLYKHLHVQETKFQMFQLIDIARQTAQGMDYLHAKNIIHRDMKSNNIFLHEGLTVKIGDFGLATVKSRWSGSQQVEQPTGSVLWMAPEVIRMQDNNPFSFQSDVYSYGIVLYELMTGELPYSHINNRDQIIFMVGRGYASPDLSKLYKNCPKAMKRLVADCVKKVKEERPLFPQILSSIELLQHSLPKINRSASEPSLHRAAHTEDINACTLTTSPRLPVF

Sequence of B-Raf (V600E) (P15056 whole entry V600E): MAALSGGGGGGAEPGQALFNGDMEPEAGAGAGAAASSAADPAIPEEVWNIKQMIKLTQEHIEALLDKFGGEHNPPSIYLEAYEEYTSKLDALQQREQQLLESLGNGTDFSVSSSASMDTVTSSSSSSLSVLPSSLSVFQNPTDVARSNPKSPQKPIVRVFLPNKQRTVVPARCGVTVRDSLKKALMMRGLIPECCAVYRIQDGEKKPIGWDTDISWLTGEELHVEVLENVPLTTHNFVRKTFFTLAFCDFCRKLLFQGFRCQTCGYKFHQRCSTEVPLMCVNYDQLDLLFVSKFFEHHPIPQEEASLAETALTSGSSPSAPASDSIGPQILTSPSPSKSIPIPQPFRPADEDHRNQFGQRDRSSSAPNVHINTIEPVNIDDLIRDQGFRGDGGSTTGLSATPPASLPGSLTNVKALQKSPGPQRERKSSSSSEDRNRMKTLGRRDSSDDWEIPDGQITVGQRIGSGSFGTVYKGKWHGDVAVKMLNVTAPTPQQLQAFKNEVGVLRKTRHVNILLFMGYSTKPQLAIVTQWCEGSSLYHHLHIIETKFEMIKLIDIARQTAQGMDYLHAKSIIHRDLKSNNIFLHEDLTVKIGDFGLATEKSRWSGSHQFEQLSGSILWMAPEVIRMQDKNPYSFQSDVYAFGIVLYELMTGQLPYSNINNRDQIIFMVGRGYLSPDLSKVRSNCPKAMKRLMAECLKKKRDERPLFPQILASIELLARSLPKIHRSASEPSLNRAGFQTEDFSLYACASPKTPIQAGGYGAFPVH

CNc1ncc2cc(-c3cc(NC(=O)NCCC(C)(C)C)c(F)cc3C)c(C)nc2n1 [Example 1, 1-(3,3-Dimethylbutyl)-3-(2-fluoro-4-methyl-5-(7-methyl-2-(methylamino)pyrido[2,3-d]pyrimidin-6-yl)phenyl)urea]
inhibition at 0.1 µM ([1]; 100 nM): 82.9% | % inhibition ([1]; 100 nM, 0.1 µM): 82% | inhibition at 1 µM ([1]; 1000 nM): 96.5% | % inhibition ([1]; 1000 nM, 1 µM): >98% | IC50 [2]: 7 nM | IC50 ([3]; read-out: Abs IC50): 0.2 nM | IC50 ([3]; read-out: Rel IC50): 0.25 nM | IC50 [4]: 0.6 nM | IC50 ([5]; read-out: Abs IC50): 0.83 nM | IC50 ([5]; read-out: Rel IC50): 0.41 nM | IC50 ([6]; MV4-11, read-out: Abs IC50): 0.98 nM | IC50 ([6]; MV4-11, read-out: Rel IC50): 1.87 nM | IC50 [7]: 1.09 nM | IC50 [8]: 1.5 nM | IC50 ([9]; read-out: Abs IC50): 1.99 nM | IC50 ([9]; read-out: Rel IC50): 0.59 nM | IC50 ([10]; SW-620, read-out: Abs IC50): 2.86 nM | IC50 ([10]; SW-620, read-out: Rel IC50): 0.46 nM | IC50 ([11]; read-out: Abs IC50): 2.91 nM | IC50 ([11]; read-out: Rel IC50): 2.03 nM | IC50 ([12]; read-out: Abs IC50): 5.18 nM | IC50 ([12]; read-out: Rel IC50): 0.66 nM | IC50 ([13]; read-out: Abs IC50): 8.35 nM | IC50 ([13]; read-out: Rel IC50): 12.7 nM | IC50 ([14]; read-out: Abs IC50): 15.1 nM | IC50 ([14]; read-out: Rel IC50): 16.3 nM | IC50 ([15]; read-out: Abs IC50): > 20 nM | IC50 ([15]; read-out: Rel IC50): 0.36 nM | IC50 ([16]; read-out: Abs IC50): > 20 nM | IC50 ([16]; read-out: Rel IC50): > 20 nM | IC50 [17]: < 1000 nM | animal body weight [18]: no animal body weight loss | tumor growth ([18]; all dose groups): tumor growth inhibition and tumor growth regression | tumor growth [19]: statistically significant tumor growth inhibition | bioavailability [20]: low | solubility [21]: poor | inhibition at 0.001 µM [22]: -11% | inhibition at 0.01 µM [22]: 23.9% | inhibition at 0.1 µM [22]: 50.8% | inhibition at 1 µM [22]: 79.3%
